# In EP0908457B1, “3-(1,2-benzisothiazol- and isoxazol-5-Y1)-2,4(1H,3H)-pyrimidinedione or thione and 3-(1,2-benzisothiazol- and isoxazol-5-y1)-4(3H)-pyrimidinone or thione herbicidal agents” (BASF AKTIENGESELLSCHAFT, priority 1997, dated 1999):
# Assays:
# [1] = system: Monochoria vaginalis, Presl.; test: Preemergence weed control under flooded paddy conditions, MOOVA (Monochoria); type: in vivo; conditions: flooded paddy; as to herbicidal effect rating, MOOVA: meaning of each grade not given here
# Cyperus iria = test: Preemergence weed control under flooded paddy conditions, CYPIR (Rice Flatsedge); type: in vivo; conditions: flooded paddy; as to herbicidal effect rating, CYPIR: meaning of each grade not given here
# [2] = system: Cyperus serotinus, Rottb.; test: Preemergence weed control under flooded paddy conditions, CYPSE (Flatsedge); type: in vivo; as to herbicidal effect rating, CYPSE: meaning of each grade not given here
# Sagittaria pygmaea, L. = test: Preemergence weed control under flooded paddy conditions, SAGPY (Arrowhead (Pygmaea)); type: in vivo; conditions: flooded paddy; as to herbicidal effect rating, SAGPY: meaning of each grade not given here
# [3] = system: Echinochloa oryzoides (Ard.) Fritsch.; test: Preemergence weed control under flooded paddy conditions, ECHORC (Watergrass (Calif.)); type: in vivo; conditions: flooded paddy; as to herbicidal effect rating, ECHORC: meaning of each grade not given here
# [4] = system: Oryza sativa, (L.) Tebonnet; test: Rice tolerance to post-transplant applications under flooded paddy conditions (Example 187), ORYSAT (Rice, Tebonnet); as to herbicidal effect rating ORYSAT: meaning of each grade not given here
# [5] = Rate 0.0320 kg/ha, preemergence, rated 3-4 weeks after treatment
# [6] = Rate 0.0620 kg/ha, preemergence, rated 3-4 weeks after treatment
# [7] = Rate 0.1250 kg/ha, preemergence, rated 3-4 weeks after treatment
# [8] = Rate 0.2500 kg/ha, preemergence, rated 3-4 weeks after treatment
# [9] = Rate 0.5000 kg/ha, preemergence, rated 3-4 weeks after treatment
# [10] = Rate 0.0320 kg/ha, preemergence, rated three to four weeks after treatment
# [11] = Rate 0.0620 kg/ha, preemergence, rated three to four weeks after treatment
# [12] = Rate 0.1250 kg/ha, preemergence, rated three to four weeks after treatment
# [13] = Rate 0.2500 kg/ha, preemergence, rated three to four weeks after treatment
# [14] = Rate 0.5000 kg/ha, preemergence, rated three to four weeks after treatment
# [15] = Rate 0.0320 kg/ha, rated three to four weeks after treatment
# [16] = Rate 0.0620 kg/ha, rated three to four weeks after treatment
# [17] = Rate 0.1250 kg/ha, rated three to four weeks after treatment
# [18] = Rate 0.2500 kg/ha, rated three to four weeks after treatment
# [19] = Rate 0.0320 kg/ha, preemergence weeds, rated three to four weeks after treatment
# [20] = Rate 0.0620 kg/ha, preemergence weeds, rated three to four weeks after treatment
# [21] = Rate 0.1250 kg/ha, preemergence weeds, rated three to four weeks after treatment
# [22] = Rate 0.2500 kg/ha, preemergence weeds, rated three to four weeks after treatment
smiles,measurement,setting,value
"CCCS(=O)(=O)NC(=O)COc1ccc(C)cc1-c1nsc2ccc(-n3c(=O)cc(C(F)(F)F)n(C)c3=O)cc12 [Example 552, Acetamide, 2-{{2-{5-[3,6-dihydro-3-methyl-2,6-dioxo-4-(trifluoromethyl)-1(2H)-pyrimidinyl]-1,2-benzisothiazol-3-yl}-p-tolyl}oxy}-N-(propylsulfonyl)-]","herbicidal effect rating, MOOVA",[1]; [5],6.0
same,"herbicidal effect rating, MOOVA",[1]; [6],8.0
same,"herbicidal effect rating, MOOVA",[1]; [7],9.0
same,"herbicidal effect rating, MOOVA",[1]; [8],9.0
same,"herbicidal effect rating, MOOVA",[1]; [9],9.0
same,"herbicidal effect rating, CYPIR",Cyperus iria; [5],6.0
same,"herbicidal effect rating, CYPIR",Cyperus iria; [6],8.0
same,"herbicidal effect rating, CYPIR",Cyperus iria; [7],7.0
same,"herbicidal effect rating, CYPIR",Cyperus iria; [8],9.0
same,"herbicidal effect rating, CYPIR",Cyperus iria; [9],9.0
same,"herbicidal effect rating, CYPSE",[2]; [5],0.0
same,"herbicidal effect rating, CYPSE",[2]; [7],4.0
same,"herbicidal effect rating, CYPSE",[2]; [8],9.0
same,"herbicidal effect rating, CYPSE",[2]; [9],9.0
same,"herbicidal effect rating, SAGPY","Sagittaria pygmaea, L.; [5]",0.0
same,"herbicidal effect rating, SAGPY","Sagittaria pygmaea, L.; [6]",0.0
same,"herbicidal effect rating, SAGPY","Sagittaria pygmaea, L.; [7]",0.0
same,"herbicidal effect rating, SAGPY","Sagittaria pygmaea, L.; [8]",0.0
same,"herbicidal effect rating, SAGPY","Sagittaria pygmaea, L.; [9]",5.0
same,"herbicidal effect rating, ECHORC",[3]; [5],2.6
same,"herbicidal effect rating, ECHORC",[3]; [6],3.7
same,"herbicidal effect rating, ECHORC",[3]; [7],4.7
same,"herbicidal effect rating, ECHORC",[3]; [8],9.0
same,"herbicidal effect rating, ECHORC",[3]; [9],9.0
same,herbicidal effect rating ORYSAT,"[4]; Rate 0.0320 kg/ha, rated 3-4 weeks after treatment",4.0
same,herbicidal effect rating ORYSAT,"[4]; Rate 0.0620 kg/ha, rated 3-4 weeks after treatment",6.0
same,herbicidal effect rating ORYSAT,"[4]; Rate 0.1250 kg/ha, rated 3-4 weeks after treatment",6.0
same,herbicidal effect rating ORYSAT,"[4]; Rate 0.2500 kg/ha, rated 3-4 weeks after treatment",7.0
same,herbicidal effect rating ORYSAT,"[4]; Rate 0.5000 kg/ha, rated 3-4 weeks after treatment",4.0
"Cn1c(C(F)(F)F)cc(=O)n(-c2ccc3snc(/C=N/O)c3c2)c1=O [Example 278, 1,2-Benzisothiazole-3-carboxaldehyde, 5-[3,6-dihydro-3-methyl-2,6-dioxo-4-(trifluoromethyl)-1(2H)-pyrimidinyl]-, 3-oxime, (E)-]",MOOVA herbicidal effect rating,[1]; [10],6.0
same,MOOVA herbicidal effect rating,[1]; [11],8.0
same,MOOVA herbicidal effect rating,[1]; [12],9.0
same,MOOVA herbicidal effect rating,[1]; [13],9.0
same,MOOVA herbicidal effect rating,[1]; [14],9.0
same,CYPIR herbicidal effect rating,Cyperus iria; [10],0.0
same,CYPIR herbicidal effect rating,Cyperus iria; [11],2.0
same,CYPIR herbicidal effect rating,Cyperus iria; [12],7.0
same,CYPIR herbicidal effect rating,Cyperus iria; [13],9.0
same,CYPIR herbicidal effect rating,Cyperus iria; [14],9.0
same,CYPSE herbicidal effect rating,[2]; [10],0.0
same,CYPSE herbicidal effect rating,[2]; [11],0.0
same,CYPSE herbicidal effect rating,[2]; [12],2.0
same,CYPSE herbicidal effect rating,[2]; [13],4.0
same,CYPSE herbicidal effect rating,[2]; [14],9.0
same,SAGPY herbicidal effect rating,"Sagittaria pygmaea, L.; [10]",0.0
same,SAGPY herbicidal effect rating,"Sagittaria pygmaea, L.; [11]",0.0
same,SAGPY herbicidal effect rating,"Sagittaria pygmaea, L.; [12]",0.0
same,SAGPY herbicidal effect rating,"Sagittaria pygmaea, L.; [13]",2.0
same,SAGPY herbicidal effect rating,"Sagittaria pygmaea, L.; [14]",9.0
same,ECHORC herbicidal effect rating,[3]; [10],0.0
same,ECHORC herbicidal effect rating,[3]; [11],6.1
same,ECHORC herbicidal effect rating,[3]; [12],7.4
same,ECHORC herbicidal effect rating,[3]; [13],8.0
same,ECHORC herbicidal effect rating,[3]; [14],9.0
same,ORYSAT herbicidal effect rating,[4]; [15],2.0
same,ORYSAT herbicidal effect rating,[4]; [16],3.0
same,ORYSAT herbicidal effect rating,[4]; [17],4.0
same,ORYSAT herbicidal effect rating,[4]; [18],7.0
same,ORYSAT herbicidal effect rating,"[4]; Rate 0.5000 kg/ha, rated three to four weeks after treatment",8.0
"Cn1c(C(F)(F)F)cc(=O)n(-c2ccc3snc(CN(C(=O)OC(C)(C)C)S(C)(=O)=O)c3c2)c1=O [Example 304, Carbamic acid, {{5-[3,6-dihydro-3-methyl-2,6-dioxo-4-(trifluoromethyl)-1(2H)-pyrimidinyl]-1,2-benzisothiazol-3-yl}methyl}(methylsulfonyl)-, tert-butyl ester]","herbicidal effect rating, MOOVA",[1]; [19],0.0
same,"herbicidal effect rating, MOOVA",[1]; [20],7.0
same,"herbicidal effect rating, MOOVA",[1]; [21],7.0
same,"herbicidal effect rating, MOOVA",[1]; [22],9.0
same,"herbicidal effect rating, CYPIR",Cyperus iria; [19],0.0
same,"herbicidal effect rating, CYPIR",Cyperus iria; [20],4.0
same,"herbicidal effect rating, CYPIR",Cyperus iria; [21],9.0
same,"herbicidal effect rating, CYPIR",Cyperus iria; [22],9.0
same,"herbicidal effect rating, CYPSE",[2]; [19],0.0
same,"herbicidal effect rating, CYPSE",[2]; [20],0.0
same,"herbicidal effect rating, CYPSE",[2]; [21],0.0
same,"herbicidal effect rating, CYPSE",[2]; [22],0.0
same,"herbicidal effect rating, SAGPY","Sagittaria pygmaea, L.; [19]",0.0
same,"herbicidal effect rating, SAGPY","Sagittaria pygmaea, L.; [20]",0.0
same,"herbicidal effect rating, SAGPY","Sagittaria pygmaea, L.; [21]",0.0
same,"herbicidal effect rating, SAGPY","Sagittaria pygmaea, L.; [22]",0.0
same,"herbicidal effect rating, ECHORC",[3]; [19],0.0
same,"herbicidal effect rating, ECHORC",[3]; [20],0.0
same,"herbicidal effect rating, ECHORC",[3]; [21],0.0
same,"herbicidal effect rating, ECHORC",[3]; [22],0.0
same,herbicidal effect rating ORYSAT,[4]; [15],0.0
same,herbicidal effect rating ORYSAT,[4]; [16],2.0
same,herbicidal effect rating ORYSAT,[4]; [17],4.0
same,herbicidal effect rating ORYSAT,[4]; [18],4.0
"COc1ccccc1C=C(C#N)c1nsc2ccc(-n3c(=O)cc(C(F)(F)F)n(C)c3=O)cc12 [Example 599, 1,2-Benzisothiazole-3-acetonitrile, 5-[3,6-dihydro-3-methyl-2,6-dioxo-4-(trifluoromethyl)-1(2H)-pyrimidinyl]-alpha-(o-methoxybenzylidene)-]","herbicidal effect rating, MOOVA",[1]; [10],6.0
same,"herbicidal effect rating, MOOVA",[1]; [11],7.0
same,"herbicidal effect rating, MOOVA",[1]; [13],7.0
same,"herbicidal effect rating, CYPIR",Cyperus iria; [10],0.0
same,"herbicidal effect rating, CYPIR",Cyperus iria; [11],0.0
same,"herbicidal effect rating, CYPIR",Cyperus iria; [13],3.0
same,"herbicidal effect rating, CYPSE",[2]; [11],0.0
same,"herbicidal effect rating, CYPSE",[2]; [13],0.0
same,"herbicidal effect rating, SAGPY","Sagittaria pygmaea, L.; [10]",0.0
same,"herbicidal effect rating, SAGPY","Sagittaria pygmaea, L.; [11]",0.0
same,"herbicidal effect rating, SAGPY","Sagittaria pygmaea, L.; [12]",0.0
same,"herbicidal effect rating, SAGPY","Sagittaria pygmaea, L.; [13]",0.0
same,"herbicidal effect rating, ECHORC",[3]; [10],0.0
same,"herbicidal effect rating, ECHORC",[3]; [11],0.0
same,"herbicidal effect rating, ECHORC",[3]; [12],0.0
same,"herbicidal effect rating, ECHORC",[3]; [13],4.0
same,herbicidal effect rating ORYSAT,[4]; [15],2.0
same,herbicidal effect rating ORYSAT,[4]; [16],3.0
same,herbicidal effect rating ORYSAT,[4]; [17],3.0
same,herbicidal effect rating ORYSAT,[4]; [18],5.0
